Values joined by “and” are separate entries in the source; they are usually repeats but may differ in a detail not shown here. Equal values may be shown once.
What was measured:
COG-N-440x = assay: Pre-clinical efficacy study, COG-N-440x PDX; assay type: in vivo; details: single mouse
Experimental: (§1) Patient demographics and genetic characteristics are listed in (Supplementary Tables 1, 2)[17]. The maximum tolerated dose (MTD) was determined to be 36 MBq/kg administered by intra-peritoneal injection twice weekly for a total of 4 dose fractions and this fractionated regimen was used in all studies (Supplementary Fig. 1)[18],[19]. […] Nine of 11 PDX models were MYCN amplified (Fig. 1b), which is a hallmark of high-risk neuroblastoma. Tumor response was measured as the maximum percent decrease in tumor volume after treatment and event-free survival (EFS) was measured by the area over the curve method with tumor events pre-defined by tumor growth exceeding 2 cm[3],[18].
The use of 2 mice per arm was based on the previously reported statistical analysis. PDX tumors were implanted into the right flank of 5 to 6-weeks old female mice weighing about 20–25 grams. […] Two additional dose levels of 12, and 24 MBq/kg/fraction were assessed in a subset of models and were administered as stated above. In two models treated at the 24 MBq/kg/fraction dose level we re-challenged tumor response at the time of tumor progression with an additional 4 dose fractions at 24 MBq/kg/fraction given twice weekly. Doses were prepared in 500 µL total volume. An equal volume of saline was used for the vehicle group. Tumors were measured using a digital caliper at the initiation of the study and two times per week during the treatment period. Tumor volumes were calculated as volume = ([…]∗0.5236)/1000. Weights were obtained twice weekly and mice were monitored daily for signs of toxicity. […] Tumor response was assessed by best response defined as greatest reduction in tumor volume following the last dose and is presented as percent change in tumor volume. Event-free survival was determined by area over the curve method that calculates the time to tumor event, which was defined as tumors reaching or exceeding a size ≥ 2 cm^3.
Animal studies were performed in female mice due to the lack of sex-related differences for [^211At]PTT tolerability from initial dose response studies performed in female and male mice. Female mice were chosen due to their underlying behavior towards other study subjects that reduced nonstudy-related causes for decreased wellness. Pre-clinical efficacy studies were performed through “single mouse testing” to more closely recapitulate a clinical trial. […] Number size for treatment groups was determined by model tumor growth reproducibility, which was previously shown to have less than 5% normal variation with at least two animals. Statistical tests for tumor response and event-free survival (EFS) were performed as a grouped analysis that included all tumor models treated at each respective dose level (n = 2 per model per dose level). Statistical differences between treatment groups for tumor response was performed by paired-model T-test that compared reduction in tumor volume for the 36 MBq/kg dose level vs. 24 MBq/kg or 12 MBq/kg. Event free survival was measured by area over the curve method to quantify time to event, which was set as tumor growth exceeding 2 cm[3],[19]. Differences in EFS were tested across all treated models for each respective dose level, and against untreated controls, by paired-model ANOVA analysis. Associations of drug target expression and response were performed by linear regression analysis of EFS and PARP1 mRNA expression. Genetic signatures were visually presented as a function of EFS and no statistical tests were applied. Blood and marrow toxicity studies were performed with n = 5 sample sizes and powered to detect >20% differences between untreated controls and treated animals. Results were tested for significance by one-way ANOVA comparison from untreated controls. Marrow colony formation assays were performed in replicates of 2 for each mouse subject, dependent on marrow isolation, and all replicates are included in final analyses. […]

[1] = test system: platelets, white blood cells, lymphocytes, neutrophils; assay: Hematological toxicity by complete blood counts; assay type: in vivo, CB-17 SCID mice; parameters: Neutrophils / Lymphocytes / WBC: unit not given here; details: for Lymphocytes / Neutrophils / Platelets / WBC: 72 hours post-treatment, single mouse
Experimental: (§2) Toxicity studies were done in nontumor bearing CB-17 SCID mice (Taconic Biosciences). […] Each arm had n = 10 mice (5 male, 5 female mice). […] The vehicle group received an equal volume of saline (placebo). Weights were obtained twice weekly and mice were monitored daily for signs of toxicity. […] On target hematological and marrow toxicity which was evaluated by complete blood counts and marrow colony formation assay. An additional study was performed under identical conditions to evaluate additive dose effects. […] Each treatment group was composed of equal numbers of male and female mice to rule out gender-specific effects (n = 4 per treatment group per time point). Mice were followed for signs of acute toxicity for 2 weeks and 4 weeks before euthanasia. An additional group (n = 4) treated at 36 MBq/kg was euthanized after 72 h to assess early signs of toxicity by colony formation assays. This time course was chosen to best capture the nadir of bone marrow suppression. After euthanasia, blood was collected and femurs were dissected and processed for histopathology and bone marrow evaluation.
Animals were monitored weekly for weight and daily for signs of distress until the time of euthanasia. […] Mice were anesthetized with mixed inhalation isoflurane/oxygen under a nosecone. Terminal cardiac puncture was performed and peripheral blood was transferred to K2EDTA BD Microtainer tubes (BD, San Antonio, TX). Sample volume injected was 20 µL and was pre-specified using the mouse protocol on the instrument.

COG-N-421x = assay: Pre-clinical efficacy study, COG-N-421x PDX; assay type: in vivo; details: 36 MBq/kg/fraction x 4 fractions, single mouse
Experimental: as §1
The use of 2 mice per arm was based on the previously reported statistical analysis. […] Two additional dose levels of 12, and 24 MBq/kg/fraction were assessed in a subset of models and were administered as stated above. […] Tumors were measured using a digital caliper at the initiation of the study and two times per week during the treatment period. Tumor volumes were calculated as volume = ((diameter^1/2 + diameter^2/2)^3∗0.5236)/1000. Weights were obtained twice weekly and mice were monitored daily for signs of toxicity. […] Tumor response was assessed by best response defined as greatest reduction in tumor volume following the last dose and is presented as percent change in tumor volume. […]

[2] = assay type: in vivo; details: CB57/BL6 mice; twice weekly, total of 4 dose fractions
Experimental: as §2
Supplementary Fi g u re 4: To le r a b ilit y studies to determine hematological and marrow toxicity of
[211At]PTT in CB57BL6 mice. a) Maximum tolerated dose finding studies fo r [211At]PTT administered
as 4 dose fractions given twice weekly in CB57BL6 mice. b) Complete blood counts assessed at 72 […]

[3] = 12 MBq/kg/fraction x 4 fractions
[4] = 24 MBq/kg/fraction x 4 fractions
[5] = 36 MBq/kg/fraction x 4 fractions

With O=C1NCCn2c(-c3ccc([211At])cc3)nc3cccc1c32 [[^211At]PTT, Astatine-211-parthanatine] the “EFS by AOC method” value (COG-N-440x; [3]) was 28.3679 days and 26.6227 days, the “Tumor response (% growth from study initiation at ~ 200 mm3)” value (COG-N-440x; [3]) was -72.727% and -75.758% and the “EFS by AOC method” value (COG-N-440x; [4]) was 50.2168 days and 42.5399 days. For the same compound, the “Tumor response (% growth from study initiation at ~ 200 mm3)” value (COG-N-440x; [4]) was -95.833% and -100%, the “EFS by AOC method” value (COG-N-440x; [5]) was 78.8444 days and 65.1924 days and the “Tumor response (% growth from study initiation at ~ 200 mm3)” value (COG-N-440x; [5]) was -100%. For the same compound, the thrombocytopenia ([1]; 3 or less dose fractions at the 36 MBq/kg dose level) was “did not result in thrombocytopenia”, the Lymphocytes ([1]; 36 MBq/kg x 4 dose fractions) was 0.28 and 0.26 and 0.38 and 0.27 and the Neutrophils ([1]; 36 MBq/kg x 4 dose fractions) was 0.42 and 0.22 and 0.16 and 0.34. The Platelets ([1]; 36 MBq/kg x 4 dose fractions) was 263 K/uL and 99 K/uL and 201 K/uL and 158 K/uL and 200 K/uL, the WBC ([1]; 36 MBq/kg x 4 dose fractions) was 0.78 and 0.26 and 0.58 and 0.62 and 0.7 and the Lymphocytes ([1]; 48 MBq/kg x 4 dose fractions) was 0.14 and 0.29 and 0.08 and 0.12 and 0.25. The Neutrophils ([1]; 48 MBq/kg x 4 dose fractions) was 0.24 and 0.18 and 0.26 and 0.09 and 0.13, the Platelets ([1]; 48 MBq/kg x 4 dose fractions) was 200 K/uL and 160 K/uL and 240 K/uL and 190 K/uL and 133 K/uL and the WBC ([1]; 48 MBq/kg x 4 dose fractions) was 0.5 and 0.6 and 0.36 and 0.26 and 0.48. For the same compound, the Lymphocytes ([1]; 60 MBq/kg x 4 dose fractions) was 0.28 and 0.29 and 0.41 and 0.11, the Neutrophils ([1]; 60 MBq/kg x 4 dose fractions) was 0.41 and 0.09 and 0.71 and 0.08 and the Platelets ([1]; 60 MBq/kg x 4 dose fractions) was 112 K/uL and 166 K/uL and 138 K/uL and 165 K/uL and 116 K/uL. The WBC ([1]; 60 MBq/kg x 4 dose fractions) was 0.14 and 0.76 and 0.44 and 1.42 and 0.22, the “Hematological toxicity versus control” value ([1]; 72 hours after the final dose fraction, 36, 48, 60 MBq/kg/fraction x 4) was “significant reductions in platelets, white blood cells, and lymphocytes at all dose levels” and the “time of full recovery from hematological and marrow toxicity” value ([1]; post-therapy at the MTD) was ≤ 4 weeks. For the same compound, the “time of full recovery of peripheral blood counts” value ([1]; post-treatment, 2 or 3 dose fractions of 36 MBq/kg) was 4 weeks, the Effect on neutrophils ([1]; treatment with [^211At]PTT) was “largely unaffected” and the “EFS by AOC method” value (COG-N-421x) was 61.4391 days and 76.0056 days. The “Tumor response (% growth from study initiation at ~ 200 mm3)” value (COG-N-421x) was -100% and the MTD [2] was 48 MBq/kg/fraction.

— PMC9671962 (Communications Biology, 2022)
